The source of these data is patent EP1344776A1, “5- 2-hydroxy-3-[1-(3-trifluoromethylphenyl)-cyclopropyl]-propionylamino -phtalide and 6- 2-hydroxy-3-[1-(3-trifluoromethylphenyl)-cyclopropyl]-propionylamino -4-methyl-2,3-benzoxazin-1-one derivatives with progesterone receptor modulating activity for use in fertility control, hormone replacement …” (Schering Aktiengesellschaft, priority 2002, dated 2003).

One experiment concerns hPR-A. Kind of experiment: PR-A transcription assay (MTV-LUC reporter, SK-N-MC cells). Format: cell-based, human. The following applies: 10^-7 mol/l test compound relative to R5020 10^-7 mol/l, 24 hours, 0.1 µM. How it is done:
(§1) The method for screening for PR isoform-specific progestins according to the present invention is carried out with first and second SK-N-MC cells stably transfected with a plasmid expressing the hPR-A (first cells) or the hPR-B (second cells) and the LUC reporter gene linked to the hormonally responsive MTV promoter.
(§2) For the transcription assay, the cells are seeded onto 96-well dishes (2x 10^4 cells/dish) and cultured in a medium as described above, with the exception that the FCS is replaced by a 3 % charcoal stripped FCS. 48 hours later, cells are contacted with prediluted test compounds. For determination of agonistic activity, cells are cultured in the presence of increasing concentrations (10^-6 to 10^-11 mol/l) of test progestins. As a positive control for reporter gene induction cells are treated with 10^-6 to 10^-11 mol/l R5020 (promegestone). As a negative control for reporter gene induction, cells are cultured in 1 % ethanol.
(§3) Evaluation of the response gives the efficacy [%], and evaluation of the EC50 values gives the potency [nM]. Calculation of the agonistic activity is conducted as follows:
(§4) The LUC activity [%] for the measured data points is calculated as follows: relative LUC activity [%] = 100 x((response 10)^-6 (to 10)^-11 mol/l test compound - CO)/(CI - CO) [formula] wherein CI = 100 % stimulation (R5020, 10^-7 mol/l) and CO = 0 % stimulation (ethanol, 1 %).
(§5) Thus, the efficacy [%] is calculated according to: efficacy [%] = 100 x((response 10)^-7 mol/l test compound - CO)/(CI - CO) [formula]
(§6) The potency [nM], i.e. the EC50, is determined graphically.

The nature of experiment [1]: Glucocorticoid / anti-glucocorticoid activity in vivo (changes in thymus weight). The following applies: concluded from changes in thymus weight.
The next experiment concerns orchidectomized rats. Kind of experiment: Androgenic / anti-androgenic activity in orchidectomized rats (prostate weight, seminal vesicle). It is filed as in vivo, rat. The following applies: prostate weight and seminal vesicle. An excerpt:
The absence of androgenic as well as anti-androgenic activity in vivo was confirmed by tests performed with orchidectomized rats (change in prostate weight and in the seminal vesicle).

Another experiment deals with juvenile female rabbits. Kind of experiment: Endometrial transformation in rabbit (Clauberg test). It is filed as in vivo. The following applies: for McPhail Index: scores 1 to 4; for minimal effective dose: Oryctolagus cuniculus, read-out: Threshold Value.
The target of experiment [2] is T1, estrogen receptor-α (ERα) (Homo sapiens, UniProt P03372).
T1 sequence (P03372 1-595): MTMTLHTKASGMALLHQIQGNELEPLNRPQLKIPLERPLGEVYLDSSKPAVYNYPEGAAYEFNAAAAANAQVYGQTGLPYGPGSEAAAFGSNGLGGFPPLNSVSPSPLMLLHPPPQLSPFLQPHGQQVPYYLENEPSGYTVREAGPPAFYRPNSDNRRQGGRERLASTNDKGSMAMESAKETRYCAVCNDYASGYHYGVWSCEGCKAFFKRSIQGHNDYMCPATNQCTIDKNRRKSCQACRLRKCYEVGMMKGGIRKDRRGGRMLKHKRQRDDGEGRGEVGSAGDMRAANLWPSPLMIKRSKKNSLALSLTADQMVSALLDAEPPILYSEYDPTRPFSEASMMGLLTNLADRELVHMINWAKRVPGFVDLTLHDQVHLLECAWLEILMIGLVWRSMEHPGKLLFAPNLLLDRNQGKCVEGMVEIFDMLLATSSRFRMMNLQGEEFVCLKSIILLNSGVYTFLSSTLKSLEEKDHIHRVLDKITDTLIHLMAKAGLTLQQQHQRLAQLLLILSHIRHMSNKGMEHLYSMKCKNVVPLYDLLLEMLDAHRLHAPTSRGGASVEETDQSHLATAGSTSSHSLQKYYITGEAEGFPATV
Put plainly: Estrogen receptor-α binding. The following applies: in vitro.

For another experiment, the system named is female rats. Put plainly: Ovulation inhibition test in rat. It is filed as in vivo. The method, then:
Before the treatment is started, two […] cycles of female rats (weight: 190 to 210 g) were monitored. Only animals having a regular 4 day-cycle are used for the subsequent test. Starting in the metoestrus, the test compound is administered for 4 days (day 1 to 4) and the cycle is controlled thereafter.
For subcutaneous application, the test compounds are dissolved in benzyl benzoate/castor oil (1+9 v/v) and the daily dose is administered in a volume of 1 ml/kg body weight.
For peroral application, the test compounds are suspended in a carrier liquid (85 mg Myrj^R in 100 ml 0.9 % w/v NaCl solution) and the daily dose is administered in a volume of 2 ml/kg body weight.
On day 4, after the application of the test compound, those animals having estrus or metoestrus are ovariectomized under ether anesthesia on one side. Preparations of the tubes are prepared and they are investigated for ova by means of microscope. On day 5 all animals (intact and partly ovariectomized) are killed with carbon dioxide, the tubes are preserved and analyzed in the same way. It is then determined, as a percentage, in how many animals ovulation was inhibited.

A further experiment relates to hPR-B. Kind of experiment: PR-B transcription assay (MTV-LUC reporter, SK-N-MC cells). Format: cell-based, human. The following applies: 10^-7 mol/l test compound relative to R5020 10^-7 mol/l, 24 hours, 0.1 µM. The method, then:
as §1
The cells are cultured in Minimum Essential Medium with Earl's Salts (S-MEM, without L-glutamine; Gibco BRL, no. 21090-022), supplemented with 10 % fetal calf serum (FCS), penicillin 100U/streptomycin 100 µg/ml (Biochrom, no. A2213), L-glutamine 4 mmol/l (Gibco BRL, no. 25030-024), sodium pyruvate 1 mmol/l (Biochrom, no. L0473) and 1x non-essential amino acids (Biochrom, no. K0293) at a temperature of 37 °C and in an atmosphere of 5 % carbon dioxide.
as §2
After incubation with test progestins for 24 hours, the medium is removed and cells are lysed with 20 µl of lysis buffer (Luciferase Assay System E 153A; Promega) and under agitation of the plate for 10 min. After addition of 30 µl of luciferase reagent (Luciferase Assay System E 151A + 152A; Promega) within 30 seconds per plate, the activity of the luciferase reporter gene product is determined in the cell lysates by means of a Microlite ML 3000 microtiter plate luminometer (Dynatech) in cycle mode.
as §3, §4, §5, §6

Where two headings read alike, the source gives them in different places.

`O=C1OCc2cc(NC(=O)C(O)(CC3(c4cc(C(F)(F)F)ccc4F)CC3)C(F)(F)F)ccc21` (single isomer, unassigned; (+)) [((+)-1), (+)-5-{2-hydroxy-3-[1-(2-fluoro-5-trifluoromethylphenyl)-cyclopropyl]-2-trifluoromethyl-propionylamino}-phthalide]: the PR-A agonism efficacy with hPR-A stood at 88.7%. Also, the “glucocorticoid or anti-glucocorticoid activity in vivo” value in experiment [1] is given as “does not seem to exhibit any glucocorticoid or any anti-glucocorticoid activity”. Further, in the experiment on orchidectomized rats, the “androgenic activity in vivo” value was “no androgenic”. Moreover, the “anti-androgenic activity in vivo” value in the experiment with orchidectomized rats is “no anti-androgenic activity”. For the same compound, the “McPhail Index” value in the experiment on juvenile female rabbits (Oral (p.o.), 0.001 mg/kg) worked out at 1.2; in the experiment with juvenile female rabbits (Oral (p.o.), 0.01 mg/kg), 2.5; in the experiment with juvenile female rabbits (Oral (p.o.), 0.1 mg/kg), 3.0; with juvenile female rabbits (Subcutaneous (s.c.), 0.001 mg/kg), 1.0; in the experiment with juvenile female rabbits (Subcutaneous (s.c.), 0.01 mg/kg), 2.7; with juvenile female rabbits (Subcutaneous (s.c.), 0.1 mg/kg), 3.8. Further, the minimal effective dose in the experiment with juvenile female rabbits (sc, Subcutaneous (s.c.)) was in the range of 0.001 to 0.01 mg/kg; with juvenile female rabbits (Oral (p.o.)), 0.001 to 0.01 mg/kg. The “affinity for the estrogen receptor-α (ERα)” value in experiment [2] is given as “negligible”. Also, the 50% effective dose (ED50) – broadly, the dose at which the effect has come halfway, by size or by number of responders – with female rats (Rattus norvegicus, ovulation inhibition, adult female rats (Table 1-a), read-out: ED50) turned out to be 0.045 mg/kg; with female rats (rat (Table 1-b), read-out: Ovulation Inhibition (rat) [ED50]), 0.04 mg/kg. Moreover, the % Inhibition (as a rule, the percentage by which the read-out fell short of the control) with female rats (ovulation inhibition, rat, dose 10 µg/kg, days 1 to 4) came to 0%. The PR-B agonism efficacy in the experiment with hPR-B is recorded as 25%.
